Biological target: T1, Botrytis aclada laccase (BaL WT) (Botrytis aclada, UniProt H8ZRU2)
T1 construct: BaL cDNA, secreted recombinant from Pichia pastoris X-33 (pGAPZ A, pBaLac)
T1 sequence (H8ZRU2 20-580): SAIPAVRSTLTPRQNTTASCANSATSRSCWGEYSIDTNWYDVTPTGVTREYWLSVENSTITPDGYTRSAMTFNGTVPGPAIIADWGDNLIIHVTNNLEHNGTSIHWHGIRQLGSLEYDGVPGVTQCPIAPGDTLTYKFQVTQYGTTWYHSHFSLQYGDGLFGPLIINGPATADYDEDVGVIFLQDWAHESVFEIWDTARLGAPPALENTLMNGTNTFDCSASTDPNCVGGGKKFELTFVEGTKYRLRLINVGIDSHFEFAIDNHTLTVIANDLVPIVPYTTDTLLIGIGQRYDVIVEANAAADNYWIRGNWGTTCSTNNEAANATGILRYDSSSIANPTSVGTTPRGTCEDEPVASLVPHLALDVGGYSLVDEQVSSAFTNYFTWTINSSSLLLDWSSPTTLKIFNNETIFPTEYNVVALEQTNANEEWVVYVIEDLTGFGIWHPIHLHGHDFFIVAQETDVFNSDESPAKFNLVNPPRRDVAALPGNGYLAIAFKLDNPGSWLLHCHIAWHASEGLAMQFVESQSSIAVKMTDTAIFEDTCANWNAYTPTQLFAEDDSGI
Test: steady-state photometric kinetics, Michaelis-Menten fit
Type: biochemical
Conditions: pH 3.0, 4.5 and 6.0; apparent constants

CCn1c(=NN=c2sc3cc(S(=O)(=O)O)ccc3n2CC)sc2cc(S(=O)(=O)O)ccc21 [ABTS, 2,2′-azino-bis(3-ethylbenzothiazoline-6-sulfonic acid)]
KM: apparent steady-state kinetic constants were determined for the two substrates DMP and ABTS

COc1cccc(OC)c1O [DMP, 2,6-dimethoxyphenol]
KM: apparent steady-state kinetic constants were determined for the two substrates DMP and ABTS

Reference: PMC5651918, “Evolving stability and pH-dependent activity of the high redox potential Botrytis aclada laccase for enzymatic fuel cells” (Scientific Reports, 2017)
